From PubChem BioAssay (NCI)
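Step 1: Grow cells in 96-well plates. Step 2: Expose to compound for 48 hours at 5 concentrations. Step 3: Interpolate endpoints linearly; if unreached, use highest concentration. TGI denotes the concentration required for complete inhibition of growth.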

Assays:
Experiment in all cases: DTP human tumour cell line panel, 48 h
DU-145 prostate = system: DU-145 prostate
HCT-116 colon = system: HCT-116 colon
KM12 colon = system: KM12 colon
MALME-3M melanoma = system: MALME-3M melanoma
NCI-H460 lung = system: NCI-H460 lung
OVCAR-8 ovarian = system: OVCAR-8 ovarian
SF-295 CNS = system: SF-295 CNS
SK-OV-3 ovarian = system: SK-OV-3 ovarian
SNB-19 CNS = system: SNB-19 CNS
T-47D breast = system: T-47D breast

SMILES	TGI (DU-145 prostate)	TGI (HCT-116 colon)	TGI (KM12 colon)	TGI (MALME-3M melanoma)	TGI (NCI-H460 lung)	TGI (OVCAR-8 ovarian)	TGI (SF-295 CNS)	TGI (SK-OV-3 ovarian)	TGI (SNB-19 CNS)	TGI (T-47D breast)
N#Cc1ccc(Oc2nc3ccc(C(F)(F)F)cc3nc2-c2ccccc2)cc1	34 µM	28.6 µM	48.6 µM	45.3 µM	31.4 µM	34.4 µM	58.2 µM	26.9 µM	41.2 µM	38.5 µM
CC(=O)Oc1ccc(/C=C/C(=O)O[C@H]2CCCC[C@@H]2OC(=O)/C=C/c2ccc(OC(C)=O)c(OC(C)=O)c2)cc1OC(C)=O	33.7 µM	20.3 µM	60.2 µM	37.1 µM	> 100 µM	61.7 µM	19 µM	27.4 µM	27.6 µM	47.1 µM
COc1cc2c(cc1OC)-c1cc3cc(OC)c(OC)cc3c(=O)n1CC2	> 51.5 µM	> 53.4 µM	> 100 µM	> 79.5 µM	> 100 µM	> 100 µM	> 100 µM	> 100 µM	> 100 µM	8.34 µM
C=C(C(=O)OC)c1cc2ccccc2n1S(=O)(=O)c1ccccc1	8.51 µM	> 34.4 µM	5.99 µM	5.72 µM	8.23 µM	8.42 µM	20.8 µM	26 µM	34 µM	5.51 µM
CCOc1ccc2nc(NC(NC(=O)c3cccnc3)(C(F)(F)F)C(F)(F)F)sc2c1	> 100 µM	> 100 µM	> 100 µM	> 100 µM	> 100 µM	88 µM	> 100 µM	> 100 µM	> 100 µM	58.4 µM
N#Cc1nc(CCC(c2nc(C#N)c(N)o2)N2C(=O)c3ccccc3C2=O)oc1N (stereo unspecified)	> 100 µM	> 100 µM	> 100 µM	> 100 µM	> 100 µM		> 100 µM	> 100 µM	> 100 µM	> 100 µM
Nc1ccc(Oc2ccc(C34CC5CC6C3CC3CC4C(C5)C6(c4ccc(Oc5ccc(N)c(O)c5)cc4)C3)cc2)cc1O	> 43.5 µM	11.1 µM	47.8 µM	30.4 µM	> 36.1 µM	> 46.7 µM	15.3 µM	21.7 µM	14.7 µM	> 63.7 µM
CCN(CC)C(=O)N1CN(c2ccccc2)C2(CCN(CCCSc3ccc(F)cc3)CC2)C1=O	40.7 µM	12.9 µM	25.3 µM	29.6 µM		54.4 µM	25.1 µM	63 µM	> 100 µM	47.1 µM
c1ccc2c(c1)CC1COc3ccccc3C1O2 (stereo unspecified)	> 100 µM	> 100 µM	> 100 µM	> 100 µM		> 100 µM	> 100 µM	> 100 µM		> 100 µM
CC1(C)CCC(=O)NC1CC(=O)CC1NC(=O)CCC1(C)C (stereo unspecified)	> 100 µM	> 100 µM	> 100 µM	> 100 µM	> 100 µM	> 100 µM	> 100 µM	> 100 µM	> 100 µM	> 100 µM
